Tests used:
Panc02 tumors [1] = experiment: In vivo anti-tumor study in Panc02 tumor-bearing mice; conditions: i.v. three times at an interval of three days; for anti-tumor activity of PGEM loaded with CCR2 inhibitor: 10 mg/kg for CCR2 inhibitor; for inhibition of Panc02 tumor growth (therapeutic efficacy): GEM: 20 mg/kg, PF: 10 mg/kg
Protocol: In vivo anti-tumor study. The antitumor effect was evaluated in syngeneic mice bearing Panc02 tumors. In brief, 1×10^5 Panc02 cells were inoculated into the right flank of female C57BL/6 mice. When the tumor volume reached ˜50 mm^3, the mice started to receive different treatments. […]. In a separate study, the synergistic tumor inhibition effect of PF and GEM was evaluated by intravenously injecting saline, free GEM, free PF, free GEM+PF, PGEM, and PGEM/PF (GEM: 20 mg/kg; PF: 10 mg/kg), respectively, into the Panc02 tumor-bearing mice. These treatments were also performed three times at an interval of three days. The tumor volumes and body weights were continuously monitored. At the endpoint, the tumor tissues and major organs were fixed in 10% formalin and dehydrated. Then they were embedded in paraffin and sectioned, followed by H&E staining with for histopathological examination. The biochemical parameters, including WBCs, RBCs, Hb, AST, ALT, and creatinine, were evaluated for safety profiles. The effect of PGEM/PF on the inhibition of lung metastasis of pancreatic cancer was also evaluated. A pulmonary metastasis model of pancreatic cancer was established by injecting KPC cells via tail vein. On day 10 following tumor cell inoculation, mice were i.v. administered with saline, free GEM+PF, PGEM, and PGEM/PF, respectively. The treatment was performed at day 10, day 14, and Day 18, and the mice were sacrificed at day 20.

Panc02 cells [2] = experiment: MTT cytotoxicity assay; type: cell-based, Murine; conditions: 96 h
Protocol: MTT assay. Panc02 cells were seeded in 96-well plates at a density of 1500 cells/well with 100 μL of complete culture medium (DMEM with 10% FBS and 1% streptomycin/penicillin). After overnight incubation, Panc02 cells were treated with various concentrations of saline, free PF, free BMS, free Bind, free GEM, free GEM+PF, PGEM, PGEM/PF, PGEM/BMS, and PGEM/Bind micelles. After 96 h, the cytotoxicity was determined by MTT assay. The absorbance of each well was measured at 590 nm and the cell viability was determined via the following formula: (ODtreated−ODblank)/(ODcontrol−ODblank)×100%.

[3] = Release of PF from PGEM/PF micelles (dialysis method); type: physicochemical; conditions: 37° C., PBS with 0.5% tween 80, 24 h
Protocol: Release of PF from PGEM/PF micelles. The release of PF from PGEM/PF micelles was examined at 37° C. via a dialysis method with free PF as a control. PF-loaded PGEM micelles was transferred into a dialysis bag with MWCO of 3500 Da, which was then incubated in 50 mL PBS with 0.5% (w/v) tween 80 under gentle shaking. At specific time intervals, all the PBS solution outside the dialysis bag was withdrawn and replaced with another 50 mL of fresh solution. The PF concentrations in the solution were determined by HPLC.

Panc02 tumors [4] = experiment: Quantification of tumor-infiltrating immune cells by flow cytometry; type: in vivo, mice; conditions: i.v. every three days for three times
Protocol: Quantification of tumor-infiltrating lymphocytes by flow cytometry. Syngeneic C57BL/6 mice bearing Panc02 tumors received various treatments (saline, free GEM, free PF, free GEM+PF, PGEM, and PGEM/PF) via i.v. administration every three days for three times. Tumors were collected at 24 h following the last treatment. Single cell suspensions were prepared according to previous literature. See Wan, Z., et al., Science Advances, 7 (50), eabj4226 (2021). Then the cells were stained with various antibodies (Table 1) for flow cytometry analysis. For intracellular cytokine (IFN-γ and GZB) staining, cells were stimulated with PMA (100 ng/mL) and lonomycin (500 ng/mL) for 5 h in the presence of Monensin. Cells were fixed/permeabilized using the BD Cytofix/Cytoperm kit prior to cell staining. Then, the fixed/permeabilized cells were suspended in residual Intracellular Staining Perm Wash Buffer and a predetermined optimum concentration of fluorophore-conjugated antibody of interest was added (e.g. PE anti-IFN-γ) for 30 minutes. The data were analyzed using FlowJo software (available from Becton Dickenson & Company pf Ashland, OR). The percentage of cytokine (IFN-γ or GZB)-producing NK and CD8^+ T cells was gated under total NK and CD8^+ T cells, respectively, which represents the percentage of total NK or CD8^+ T that are IFN-γ or GZB positive.

[5] = cited from earlier work
Panc02 tumor tissues = experiment: Bulk RNA-Seq of Panc02 tumor tissues; type: in vivo, mice
Protocol: Bulk RNA-Seq Analysis. The Panc02 tumor-bearing mice were intravenously injected with saline, GEM and PGEM once every three days for 3 times, respectively. One day after last injection, the tumors were harvested for RNA sequencing (RNA-seq), which was performed by the Health Sciences Sequencing Core at Children's Hospital at University of Pittsburgh. RNA-Seq libraries were sequenced as 75-bp paired-end reads at a depth of ˜73-77 million reads per sample. Reads were mapped to the mouse genome (GRCm38) using STAR Aligner 2.6.1a. Gene expression quantification and differential expression analysis was performed on Saline, GEM, and PGEM treated tumor samples using RSEM 1.3.1 and Cuffdiff of Cufflinks 2.2.1. Volcano plots were generated to show the overall differential expression between pairwise comparisons among these three groups, where the x-axis indicates the log-transformed fold changes (log 2FC) and the y-axis indicates the corresponding negative log-transformed p-values (−log10(p-value)). The Gene Set Enrichment Analysis (GSEA), via GSEA software available from Broad Institute, Inc. of Cambridge, MA, was further performed based on the gene lists ranked by the log 2FC among three groups.

cGAS in Panc02 cells = experiment: Picogreen staining and immunofluorescence for cGAS-bound micronuclei; type: cell-based, Murine; conditions: compared with control and PVD-treated groups
Protocol: (§1) Immunofluorescence Microscopy. Panc02 cells were seeded on chamber slides and treated with saline, free GEM, PGEM micelles, and PVD micelles, respectively. For all immunofluorescence staining, cells were washed in PBS, fixed in 4% formaldehyde/PBS for ten minutes at room temperature (RT) and permeabilized in 0.25% Triton/PBS for 20 minutes at RT. Blocking was performed in 5% BSA/0.1% Triton/PBS for 30 minutes, followed by incubation with primary antibodies in blocking buffer for one hour at 37° C. incubator. Cells were washed in PBS and incubated with secondary antibodies in blocking buffer for one hour at RT, followed by washing and mounting on coverslips using ProLong Gold antifade reagent with DAPI. Cells were imaged using confocal microscope at the specified magnification. For picogreen-cGAS staining, cells were incubated with pico488 DNA quantification reagent for 2 hours at 37° C. For γH2AX staining, permeabilized cells were blocked in Serum-free DAKO Protein Block for one hour at RT. Cells were incubated in primary antibody (γH2AX, 1:500; anti-HA, 1:100) in DAKO antibody (available from Agilent of Santa Clara, CA) diluent at 4° C. overnight on a rocker platform.

[6] = test system: STING pathway in Panc02 cells; experiment: Western blotting of STING pathway-related proteins; type: cell-based, Murine
Protocol: Western blotting. Western blotting was performed to evaluate the STING activation in cultured Panc02 cells. Cells grown in six-well plates with 80% confluency were treated with saline, free GEM, PGEM micelles, and PVD micelles, respectively, for 48 h. Then, the cultured Panc02 cells were washed twice with pre-cooled PBS and lysed in Pierce™ RIPA buffer (available from Thermo Fischer Scientific of Pittsburgh, PA) for 30 min in 4° C. Protein concentrations were determined by BCA method, and equal amounts of total protein lysate were resolved on a 10% SDS-PAGE and subsequently transferred to a nitrocellulose membrane. Membranes were blocked with 5% non-fat milk in PBS for 1 h prior to incubation with various antibodies targeting IRF3, P-IRF3, STING, P-STING, and Cyclin B dissolved in PBST (DPBS with 0.1% Tween 20) overnight at 4° C. The blots were washed with PBST and then probed with goat antirabbit IgG for 1 h at room temperature followed by chemiluminescence detection by SuperSignal™ West Fento Maximum Sensitivity Substrate (available from Thermo Fischer Scientific). Q-Actin or GAPDH was used as a loading control.

Panc02 cells [7] = experiment: γH2AX foci immunofluorescence (DNA double strand break marker); type: cell-based, Murine
Protocol: as §1

Panc02 cells [8] = experiment: qRT-PCR in cultured Panc02 cells; type: cell-based, Murine
Protocol: qRT-PCR. Panc02 cells grown in six-well plates were treated with saline, free GEM, PGEM micelles, and PVD micelles, respectively, for 48 h. Then, RNA was isolated using the PureLinkTM RNA kit (InvitrogenTM available from Thermo Fisher Scientific) and reverse transcribed using the High-Capacity cDNA Reverse Tran--scription Kit (available from Applied Biosystems/Thermo Fisher Scientific) based on the manufacturer's guidelines. qPCR was performed using Power SYBR Green PCR MasterMix (Applied Biosystems) in a QuantStudio 3 Real-Time PCR System (Applied Biosystems). In a separate study, Panc02 cells grown in six-well plates were treated with PGEM for 72 h. One day after adding PGEM into the wells, control siRNA (siNC) or STING siRNA ([…]) was added into the wells without changing the medium, and incubated for 48 h. Then the RNA was extracted, and CCL2, CCL7 and ISG15 expression levels were detected as described above. In another study, whether CCL2, CCL7 and ISG15 were induced by type I IFNs was evaluated. Panc02 cells grown in six-well plates were treated with PGEM for 72 h. One day after adding PGEM into the wells, isotype control (10 μg/mL) or IFNAR1 antibody (10 μg/mL) was added into the wells without changing the medium, and incubated for 48 h. Then, the RNA was extracted subjected to qRT-PCR analysis of the mRNA expression levels of CCL2, CCL7 and ISG15.

[9] = Cuffdiff P<0.05, i.v. once every three days for 3 times

PF diffused out of dialysis bag within 24 h [3] | SMILES | anti-tumor activity of PGEM loaded with CCR2 inhibitor (Panc02 tumors [1]) | anti-tumor activity of PGEM loaded with CCR2 inhibitor (Panc02 tumors [1]; listed as PF) | inhibition of Panc02 tumor growth (therapeutic efficacy) (Panc02 tumors [1]) | cytotoxicity (Panc02 cells [2]) | percentage of MDSCs and TAMs in tumors (Panc02 tumors [4]) | bioavailability [5] | solubility [5] | genes significantly downregulated (Panc02 tumor tissues; [9]) [genes] | genes significantly upregulated (Panc02 tumor tissues; [9]) [genes] | CCL2 and CCL7 gene expression (RNAseq) (Panc02 tumor tissues; mouse, in vivo) | ISG15 expression (RNAseq) (Panc02 tumor tissues; mouse, in vivo) | signals of cGAS-bound micronuclei (cGAS in Panc02 cells) | IRF3 and STING phosphorylation ([6]; 48 h) | normalized protein levels of pIRF3 and pSTING ([6]; compared with saline and PVD polymer-treated groups) | formation of γH2AX foci (Panc02 cells [7]) | CCL2, CCL7 and ISG15 expression (Panc02 cells [8])
over 95% | O=C(NCC(=O)N1CC[C@H](N[C@H]2CC[C@@](O)(c3ccc(-c4ncccn4)cn3)CC2)C1)c1cccc(C(F)(F)F)c1 [PF-04136309, N-(2-((S)-3-(((1r,4S)-4-hydroxy-4-(5-(pyrimidin-2-yl)pyridin-2-yl)cyclohexyl)amino)pyrrolidin-1-yl)-2-oxoethyl)-3-(trifluoromethyl)benzamide] | best combination effect | best results | modest effect | slight cytotoxicity | decrease | low bioavailability | poor solubility |  |  |  |  |  |  |  |  | 
 | Nc1ccn([C@@H]2O[C@H](CO)[C@@H](O)C2(F)F)c(=O)n1 [GEM, Gemcitabine] |  |  | modest effect |  |  |  |  | 489 | 416 | upregulation | upregulated | significantly increased | significantly induced | significantly higher | induced | similarly induced
 | CC(=O)N[C@@H]1C[C@H](NC(C)(C)C)CC[C@@H]1N1CC[C@H](Nc2ncnc3cc(C(C)(C)C)nn23)C1=O [BMS813160, N-[(1R,2S,5R)-5-[(1,1-dimethylethyl)amino]-2-[(3S)-3-[[7-(1,1-dimethylethyl)pyrazolo[1,5-a]-1,3,5-triazin-4-yl]amino]-2-oxo-1-pyrrolidinyl]cyclohexyl]-acetamide] |  |  |  |  |  | low bioavailability | poor solubility |  |  |  |  |  |  |  |  | 

Reference: patent US20240325565A1, “COMBINATION TREATMENT FOR SOLID TUMORS INCLUDING A STING AGONIST AND A CCR2 ANTAGONIST” (University of Pittsburgh - Of the Commonwealth System of …, priority 2023, published 2024)
